Laboratory results published in ChEMBL document CHEMBL5584267, “Discovery of the first selective, small-molecule GFRα2/3 inhibitors through DNA-encoded library technology” (Bioorg Med Chem Lett, 2024).

Experiments:
[1] = molecular target: T1, GDNF family receptor alpha-2 (Homo sapiens, UniProt O00451); experiment: Inhibition of GFRalpha2 (unknown origin)
T1 sequence (O00451 whole entry): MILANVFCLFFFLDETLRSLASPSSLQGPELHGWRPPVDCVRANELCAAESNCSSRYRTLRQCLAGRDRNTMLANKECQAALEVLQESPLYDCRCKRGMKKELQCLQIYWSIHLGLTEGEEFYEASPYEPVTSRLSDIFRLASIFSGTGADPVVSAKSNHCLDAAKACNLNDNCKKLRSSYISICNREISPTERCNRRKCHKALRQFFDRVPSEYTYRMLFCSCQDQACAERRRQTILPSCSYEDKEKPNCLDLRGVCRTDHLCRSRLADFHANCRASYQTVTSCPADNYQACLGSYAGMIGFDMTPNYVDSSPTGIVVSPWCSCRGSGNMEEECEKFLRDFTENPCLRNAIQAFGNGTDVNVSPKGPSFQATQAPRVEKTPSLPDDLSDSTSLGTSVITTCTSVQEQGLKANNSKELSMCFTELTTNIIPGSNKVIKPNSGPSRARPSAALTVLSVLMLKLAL

[2] = molecular target: T2, GDNF family receptor alpha-2 (Homo sapiens) (UniProt O00451); experiment: Inhibition of GFRalpha2 (unknown origin) assessed as maximal efficacy relative to control
T2 sequence (whole entry): T1 sequence (O00451 whole entry)

[3] = molecular target: T3, GDNF family receptor alpha-3 (Homo sapiens) (UniProt O60609); experiment: Inhibition of GFRalpha3 (unknown origin) assessed as maximal efficacy relative to control
T3 sequence (whole entry): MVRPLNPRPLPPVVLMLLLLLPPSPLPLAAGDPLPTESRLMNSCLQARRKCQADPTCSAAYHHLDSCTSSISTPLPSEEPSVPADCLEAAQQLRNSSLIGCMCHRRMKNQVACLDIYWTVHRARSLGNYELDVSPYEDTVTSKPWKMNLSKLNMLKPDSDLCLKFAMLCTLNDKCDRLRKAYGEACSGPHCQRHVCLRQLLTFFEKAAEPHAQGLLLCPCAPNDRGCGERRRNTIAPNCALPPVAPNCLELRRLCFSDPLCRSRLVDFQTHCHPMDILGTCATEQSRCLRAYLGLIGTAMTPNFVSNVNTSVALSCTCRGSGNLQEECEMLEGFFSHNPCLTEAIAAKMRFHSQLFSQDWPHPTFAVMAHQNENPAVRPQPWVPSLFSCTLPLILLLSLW

[4] = molecular target: T4, GDNF family receptor alpha-1 (Homo sapiens) (UniProt P56159); experiment: Inhibition of GFRalpha1 (unknown origin) assessed as maximal efficacy relative to control
T4 sequence (whole entry): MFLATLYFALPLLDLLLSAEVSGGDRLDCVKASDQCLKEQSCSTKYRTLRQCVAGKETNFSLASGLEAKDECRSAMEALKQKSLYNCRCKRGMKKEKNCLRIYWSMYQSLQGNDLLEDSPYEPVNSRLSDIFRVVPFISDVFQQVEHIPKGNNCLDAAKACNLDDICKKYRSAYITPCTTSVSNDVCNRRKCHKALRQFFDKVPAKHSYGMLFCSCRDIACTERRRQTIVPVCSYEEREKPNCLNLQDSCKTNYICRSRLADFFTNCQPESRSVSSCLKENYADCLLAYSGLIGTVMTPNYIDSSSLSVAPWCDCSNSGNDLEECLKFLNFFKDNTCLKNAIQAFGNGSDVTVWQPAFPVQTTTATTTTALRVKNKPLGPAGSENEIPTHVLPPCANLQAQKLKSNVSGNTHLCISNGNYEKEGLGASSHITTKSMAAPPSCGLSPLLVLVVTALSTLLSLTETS

[5] = molecular target: T5, Proto-oncogene tyrosine-protein kinase receptor Ret (Homo sapiens, UniProt P07949); experiment: Inhibition of RET (unknown origin)
T5 sequence (P07949 whole entry): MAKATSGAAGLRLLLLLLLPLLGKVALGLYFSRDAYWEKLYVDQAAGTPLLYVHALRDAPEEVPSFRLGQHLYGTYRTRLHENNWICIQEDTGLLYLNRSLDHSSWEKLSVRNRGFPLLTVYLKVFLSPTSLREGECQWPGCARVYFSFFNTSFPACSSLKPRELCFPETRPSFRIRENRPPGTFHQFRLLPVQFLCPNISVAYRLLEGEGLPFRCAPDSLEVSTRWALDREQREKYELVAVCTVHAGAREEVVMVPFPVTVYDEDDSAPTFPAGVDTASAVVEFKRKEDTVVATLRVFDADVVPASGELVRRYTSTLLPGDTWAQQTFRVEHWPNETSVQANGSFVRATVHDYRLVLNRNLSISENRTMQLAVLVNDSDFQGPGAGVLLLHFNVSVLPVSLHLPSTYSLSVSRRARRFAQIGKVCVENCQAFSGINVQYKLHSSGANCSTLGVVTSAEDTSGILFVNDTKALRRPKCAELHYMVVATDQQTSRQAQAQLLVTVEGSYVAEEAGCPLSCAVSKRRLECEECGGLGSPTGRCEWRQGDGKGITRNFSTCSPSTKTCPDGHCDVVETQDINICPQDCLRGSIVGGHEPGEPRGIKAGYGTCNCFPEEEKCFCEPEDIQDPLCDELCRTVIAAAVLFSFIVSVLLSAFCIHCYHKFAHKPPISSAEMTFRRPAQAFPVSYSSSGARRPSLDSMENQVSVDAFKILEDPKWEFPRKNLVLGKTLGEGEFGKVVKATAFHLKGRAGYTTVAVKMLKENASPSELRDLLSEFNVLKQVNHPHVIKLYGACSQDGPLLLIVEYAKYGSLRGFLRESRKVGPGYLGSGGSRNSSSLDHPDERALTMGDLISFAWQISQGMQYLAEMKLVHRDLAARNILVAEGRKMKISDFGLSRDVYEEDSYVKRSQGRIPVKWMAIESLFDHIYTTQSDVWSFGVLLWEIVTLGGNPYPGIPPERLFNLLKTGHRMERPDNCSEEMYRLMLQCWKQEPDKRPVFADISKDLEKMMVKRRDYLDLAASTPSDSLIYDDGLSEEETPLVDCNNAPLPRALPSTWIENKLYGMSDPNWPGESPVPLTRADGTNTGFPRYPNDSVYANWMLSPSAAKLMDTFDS

[6] = molecular target: T6, GDNF family receptor alpha-3 (Homo sapiens, UniProt O60609); experiment: Inhibition of GFRalpha3 (unknown origin)
T6 sequence (O60609 whole entry): T3 sequence (whole entry)

[7] = molecular target: T7, GDNF family receptor alpha-1 (Homo sapiens, UniProt P56159); experiment: Inhibition of GFRalpha1 (unknown origin)
T7 sequence (P56159 whole entry): T4 sequence (whole entry)

[8] = molecular target: T5, Proto-oncogene tyrosine-protein kinase receptor Ret; experiment: Inhibition of RET (unknown origin) assessed as maximal efficacy relative to control

Row | Compound | IC50 [1] | Emax [2] | Emax [3] | Emax [4] | IC50 [5] | IC50 [6] | IC50 [7] | Emax [8]
1 | NC(=O)Cc1cccc(O[C@H]2CCc3cc(-c4cnc(Nc5ccccc5)nc4)ccc32)c1 | > 100 µM | 0% | 0% | 0% | > 100 µM | > 100 µM | > 100 µM | 0%
2 | CNC(=O)[C@H](NC(=O)Cc1cccc(O[C@H]2CCc3cc(-c4cnc(Nc5cncnc5)nc4)ccc32)c1)C1CCCCC1 | > 100 µM | 0% | 0% | 0% | > 100 µM | > 100 µM | > 100 µM | 0%
3 | CNC(=O)[C@@H](Cc1c[nH]cn1)NC(=O)Cc1cccc(O[C@H]2CCc3cc(-c4cnc(Nc5ccccc5)nc4)ccc32)c1 | > 100 µM | 0% | 100% | 97% | > 100 µM | 13.4 µM | 29.9 µM | 0%
4 | O[C@H]1CCc2cc(-c3cnc(Nc4ccccc4)nc3)ccc21 | > 100 µM | 0% | 71% | 0% | 16 µM | 8.8 µM | > 100 µM | 92%
5 | CNC(=O)[C@H](Cc1c[nH]cn1)NC(=O)Cc1cccc(O[C@H]2CCc3cc(-c4cnc(Nc5ccccc5)nc4)ccc32)c1 | 3.7 µM | 46% | 70% | 0% | 1.1 µM | 5.4 µM | > 100 µM | 65%
6 | NC(=O)[C@H](NC(=O)Cc1cccc(O[C@H]2CCc3cc(-c4ncc(Nc5ccccc5)cn4)ccc32)c1)C1CCCCC1 | 2.5 µM | 69% | 100% | 79% | 0.8 µM | 1.1 µM | 1 µM | 68%
7 | CNC(=O)[C@H](NC(=O)Cc1cccc(O[C@@H]2Cc3ccc(-c4cnc(Nc5ccccc5)nc4)cc3C2)c1)C1CCCCC1 (racemic) | 0.1 µM | 100% | 100% | 86% | > 100 µM | 0.2 µM | 0.25 µM | 0%
8 | CNC(=O)Cc1cccc(O[C@H]2CCc3cc(-c4cnc(Nc5ccccc5)nc4)ccc32)c1 | > 100 µM | 0% | 0% | 0% | > 100 µM | > 100 µM | > 100 µM | 0%
9 | CNC(=O)[C@H](NC(=O)Cc1cccc(O[C@H]2CCc3cc(-c4cncc(Oc5ccccc5)c4)ccc32)c1)C1CCCCC1 | 18 µM | 100% | 100% | 0% | > 100 µM | 26 µM | > 100 µM | 0%
10 | COC(=O)[C@H](Cc1cnc[nH]1)NC(=O)Cc1cccc(O[C@H]2CCc3cc(-c4cncc(Oc5ccccc5)c4)ccc32)c1 | > 100 µM | 0% | 100% | 0% | > 100 µM | 7.4 µM | > 100 µM | 0%
11 | CNC(=O)[C@H](NC(=O)Cc1cccc(O[C@H]2CCc3cc(-c4cncnc4)ccc32)c1)C1CCCCC1 | > 100 µM | 0% | 0% | 0% | 0.9 µM | > 100 µM | > 100 µM | 100%
12 | CNC(=O)[C@H](NC(=O)Cc1cccc(O[C@H]2CCc3cc(-c4cnc(Nc5ccccc5)nc4)ccc32)c1)C1CCCCC1 | 1 µM | 56% | 71% | 52% | > 100 µM | 0.7 µM | 2.1 µM | 0%
13 | CNC(=O)[C@H](NC(=O)Cc1cccc(Oc2cnc(Nc3ccccc3)nc2)c1)C1CCCCC1 | > 100 µM | 0% | 0% | 0% | > 100 µM | > 100 µM | > 100 µM | 0%
14 | CNC(=O)[C@H](NC(=O)Cc1cccc(O[C@H]2CCc3ccccc32)c1)C1CCCCC1 | 9.9 µM | 66% | 66% | 0% | > 100 µM | 9.1 µM | > 100 µM | 0%
15 | CO[C@H]1CCc2cc(-c3cnc(Nc4ccccc4)nc3)ccc21 | > 100 µM | 0% | 0% | 0% | > 100 µM | > 100 µM | > 100 µM | 0%
16 | O=C(O)Cc1cccc(O[C@H]2CCc3cc(-c4cnc(Nc5ccccc5)nc4)ccc32)c1 | > 100 µM | 0% | 59% | 0% | 2.3 µM | 2.8 µM | > 100 µM | 93%
